Measured values: PubChem BioAssay AID1918937 (Molecular Pharmacology Branch, DTP, NCI, 2023)

Tested on: 521955-158-R2-J5-PDC complex spheroid viability
Assay: Anticancer human tumor 521955-158-R2-J5-PDC patient-derived pancreatic carcinoma cell line growth inhibition
Settings: for IC50: curve of first compound; for viability, T/C: stronger effect = lower value
Description: Multicellular complex tumor spheroid response to LSD1 Inhibitor Iadademstat in combination with a variety of drugs and investigational agents in selected tumor cell lines
The current study was undertaken to assess response to LSD1 inhibitors in combination with standard-of-care drugs and investigational agents in solid tumor complex spheroid models as well as in the K-562 leukemia. Complex spheroids include a stromal component modeled by human endothelial cells (HUVEC) and fibroblasts modeled by human mesenchymal stem cells (MSCs). The concentration ranges selected for each drug and investigational agent were based upon clinically achievable concentrations if the clinical Cmax of the agent was known.
Compounds. The drugs and investigational agents used in this study are listed on Table 1. All of the agents used, including staurosporine (NSC755774) and gemcitabine (NSC613327), were obtained from the Developmental Therapeutics Program, NCI. FDA-approved anticancer drugs are available from the NCI at http://dtp.nci.nih.gov/branches/dscb/oncology_drugset_explanation.html. Drugs and investigational agents were >95% pure by proton nuclear magnetic resonance (NMR) and liquid chromatography/mass spectrometry (LC/MS). Stock solutions were prepared at 400x in DMSO, stored at -70 degrees C, and diluted in fresh medium prior to their use. The final concentration of DMSO in cell culture wells never exceeded 0.25% (v/v). The FDA-approved anticancer drug set is available from the Developmental Therapeutics Program at https://dtp.cancer.gov/organization/dscb/obtaining/available_plates.htm. All drugs and investigational agents were tested over a range starting from a high concentration at or near the clinical Cmax and decreasing in half-log increments. If the clinical Cmax for an agent had not been determined, the highest concentration tested was 10 microM.
Cell Lines. The patient-derived cancer cell (PDC) lines: 292921-168-R-J2-PDC, K24384-001-R-PDC, and 521955-158-R2-J5-PDC pancreatic carcinomas, 556581-035-R-J1 ovarian carcinoma, 324938-238-R-J1-PDC, 855422-203-R-J1-PDC and 883617-216-R-J1-PDC urothelial bladder carcinomas, 743489-274-T-PDC renal cell carcinoma, 138582-R-J1 Merkel cell tumor, K60290-347-R-J1 and K57222-313-R-J1-PDC glioblastomas, 653999-131-R-J2-PDC, LG0703-F948-PDC, and 349418-098-R-PDC non-small cell lung carcinomas, 885512-296-R-J2-PDC, 171881-019-R-J1-PDC breast carcinomas and 186277-243-T-J2-PDC and 233499-124-R-J2-PDC colon carcinomas were obtained from the NCI Patient-Derived Models Repository (PDMR, https://pdmr.cancer.gov). The established cell lines NCI/ADR-RES (RRID:CVCL_14520 and OVCAR-5 (RRID:CVCL_1628) ovarian carcinomas, 786-O (RRID:CVCL_1051) and A498 (RRID:CVCL_A498) renal cell carcinoma, NCI-H211 (ATCC, cat. CRL-5824; RRID:CVCL_1529), NCI-H196 (ATCC, cat. CRL-5823, RRID:CVCL_1509), SW 1271 (ATCC, cat. CRL-2177, RRID:CVCL_1716) and NCI-H1876 (ATCC, cat. CRL-5902, RRID:CVCL_1503) small cell lung carcinomas, MDA-MB-231 (RRID:CVCL_0062) and MDA-MB-468 (RRID:CVCL_0419)breast carcinomas (10-12). Pooled donor human umbilical vein endothelial cells (HUVEC, Lonza, cat. CC-2519) and human mesenchymal stem cells (hMSC, Lonza, cat. PT-2501) were purchased from Lonza (Walkersville, MD).
Cell Culture. All cells were maintained in an incubator at 37 degrees C and 5% CO2 with 95% humidity. The PDC lines were cultured according to standard operating procedures established by the NCI PDMR (https://pdmr.cancer.gov). Briefly all PDCs were thawed and cultured in Matrigel-coated flasks prepared with a working solution of 1X Ham's F-12 nutrient mix, without supplementation (Invitrogen, Waltham, MA, cat. 11765054), 100 U/mL penicillin-streptomycin (Invitrogen, cat. 15140122), and 2.5% Matrigel (Corning Inc., Corning, NY, cat. 354248) for the first three passages. […]
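Also: spheroids exposed to agents for seven days.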
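For viability, T/C in this document: percent of DMSO vehicle control luminescence viability.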

SMILES: CC(C)CC(NC(=O)CNC(=O)c1cc(Cl)ccc1Cl)B1OC(=O)CC(CC(=O)O)(C(=O)O)O1 (stereo not given) + NC1CCC(NC2CC2c2ccccc2)CC1
- IC50 (second compound 0.1 µM): 5.31 nM
- IC50 (second compound 0.316 µM): 5.02 nM
- IC50 (second compound 1 µM): 4.9 nM
- IC50 (second compound 3.16 µM): 5.38 nM
- IC50 (second compound 10 µM): 4.85 nM
- viability, T/C (second compound 0.1 µM, first compound 0.000316 µM): 105%
- viability, T/C (second compound 0.1 µM, first compound 0.001 µM): 111%
- viability, T/C (second compound 0.1 µM, first compound 0.00316 µM): 85.9%
- viability, T/C (second compound 0.1 µM, first compound 0.01 µM): 6.15%
- viability, T/C (second compound 0.1 µM, first compound 0.0316 µM): 0.37%
- viability, T/C (second compound 0.1 µM, first compound 0.1 µM): 0.25%
- viability, T/C (second compound 0.316 µM, first compound 0.000316 µM): 99.8%
- viability, T/C (second compound 0.316 µM, first compound 0.001 µM): 106%
- viability, T/C (second compound 0.316 µM, first compound 0.00316 µM): 80.4%
- viability, T/C (second compound 0.316 µM, first compound 0.01 µM): 4.86%
- viability, T/C (second compound 0.316 µM, first compound 0.0316 µM): 0.4%
- viability, T/C (second compound 0.316 µM, first compound 0.1 µM): 0.15%
- viability, T/C (second compound 1 µM, first compound 0.000316 µM): 104%
- viability, T/C (second compound 1 µM, first compound 0.001 µM): 99.4%
- viability, T/C (second compound 1 µM, first compound 0.00316 µM): 78.2%
- viability, T/C (second compound 1 µM, first compound 0.01 µM): 4.23%
- viability, T/C (second compound 1 µM, first compound 0.0316 µM): 0.34%
- viability, T/C (second compound 1 µM, first compound 0.1 µM): 0.23%
- viability, T/C (second compound 3.16 µM, first compound 0.000316 µM): 108%
- viability, T/C (second compound 3.16 µM, first compound 0.001 µM): 111%
- viability, T/C (second compound 3.16 µM, first compound 0.00316 µM): 88%
- viability, T/C (second compound 3.16 µM, first compound 0.01 µM): 5.7%
- viability, T/C (second compound 3.16 µM, first compound 0.0316 µM): 0.29%
- viability, T/C (second compound 3.16 µM, first compound 0.1 µM): 0.28%
- viability, T/C (second compound 10 µM, first compound 0.000316 µM): 103%
- viability, T/C (second compound 10 µM, first compound 0.001 µM): 96.4%
- viability, T/C (second compound 10 µM, first compound 0.00316 µM): 74.5%
- viability, T/C (second compound 10 µM, first compound 0.01 µM): 8.66%
- viability, T/C (second compound 10 µM, first compound 0.0316 µM): 0.32%
- viability, T/C (second compound 10 µM, first compound 0.1 µM): 0.38%

SMILES: Nc1ncn(C2CC(O)C(CO)S2)c(=O)n1 (stereo not given) + NC1CC1c1ccc(-c2cccc(O)c2)cc1
- IC50 (second compound 0.1 µM): > 300 nM
- IC50 (second compound 0.316 µM): > 300 nM
- IC50 (second compound 1 µM): > 300 nM
- IC50 (second compound 3.16 µM): > 300 nM
- IC50 (second compound 10 µM): > 300 nM
- viability, T/C (second compound 0.1 µM, first compound 0.000949 µM): 90.7%
- viability, T/C (second compound 0.1 µM, first compound 0.003 µM): 96.2%
- viability, T/C (second compound 0.1 µM, first compound 0.00949 µM): 90.1%
- viability, T/C (second compound 0.1 µM, first compound 0.03 µM): 98%
- viability, T/C (second compound 0.1 µM, first compound 0.0949 µM): 85.2%
- viability, T/C (second compound 0.1 µM, first compound 0.3 µM): 64.7%
- viability, T/C (second compound 0.316 µM, first compound 0.000949 µM): 98.7%
- viability, T/C (second compound 0.316 µM, first compound 0.003 µM): 94.3%
- viability, T/C (second compound 0.316 µM, first compound 0.00949 µM): 93.1%
- viability, T/C (second compound 0.316 µM, first compound 0.03 µM): 89.5%
- viability, T/C (second compound 0.316 µM, first compound 0.0949 µM): 76.6%
- viability, T/C (second compound 0.316 µM, first compound 0.3 µM): 69.2%
- viability, T/C (second compound 1 µM, first compound 0.000949 µM): 98.4%
- viability, T/C (second compound 1 µM, first compound 0.003 µM): 90%
- viability, T/C (second compound 1 µM, first compound 0.00949 µM): 94%
- viability, T/C (second compound 1 µM, first compound 0.03 µM): 88.8%
- viability, T/C (second compound 1 µM, first compound 0.0949 µM): 90%
- viability, T/C (second compound 1 µM, first compound 0.3 µM): 75.3%
- viability, T/C (second compound 3.16 µM, first compound 0.000949 µM): 98.5%
- viability, T/C (second compound 3.16 µM, first compound 0.003 µM): 101%
- viability, T/C (second compound 3.16 µM, first compound 0.00949 µM): 92.7%
- viability, T/C (second compound 3.16 µM, first compound 0.03 µM): 91%
- viability, T/C (second compound 3.16 µM, first compound 0.0949 µM): 87.6%
- viability, T/C (second compound 3.16 µM, first compound 0.3 µM): 69.9%
- viability, T/C (second compound 10 µM, first compound 0.000949 µM): 99%
- viability, T/C (second compound 10 µM, first compound 0.003 µM): 105%
- viability, T/C (second compound 10 µM, first compound 0.00949 µM): 100%
- viability, T/C (second compound 10 µM, first compound 0.03 µM): 97.3%
- viability, T/C (second compound 10 µM, first compound 0.0949 µM): 90.3%
- viability, T/C (second compound 10 µM, first compound 0.3 µM): 71.8%
